Test results from patent US11578095B2, “Compositions and methods for synthesizing 5'-Capped RNAs” (TriLink Biotechnologies, LLC, priority 2015, dated 2023).

Legend:
T7 RNA polymerase [1] = target: T1, T7 RNA polymerase (Escherichia phage T7, UniProt P00573); assay type: biochemical, T7 bacteriophage; details: Primer/NTP Formulation 1: 6 mM primer, 1.5 mM GTP, 7.5 mM each ATP, CTP, UTP; capped peaks/(capped + 5′ OH peak)
T1 construct: purchased New England Biolabs M0251
Protocol: A double stranded DNA transcription template encoding firefly luciferase was generated by polymerase chain reaction. The +1 template nucleotide was 2′-deoxycytidine. Transcription reactions were assembled with 25 ug/mL transcription template, 40 mM Tris-HCl (pH 8.0), 27 mM MgCl2, 2 mM spermidine, 10 mM DTT, 0.002% Triton X-100, 1000 unit/mL murine RNase inhibitor (New England Biolabs catalog #M0314), 2 unit/mL inorganic pyrophosphatase (New England Biolabs catalog #M2403), 4000 units/mL T7 RNA polymerase (New England Biolabs catalog #M0251), 6 mM ARCA (^m7G3′OmepppGG), 1.5 mM GTP, 7.5 mM ATP, 7.5 mM CTP and 7.5 mM UTP. Transcriptions were incubated at 37° C. for 2 hours. Reactions were supplemented with 10 mM Tris-HCl (pH 7.6), 2.5 mM MgCl2, 0.5 mM CaCl2 and 100 units/mL DNase I (New England Biolabs catalog #M0303) and incubated for 1 hour at 37° C. The resulting mRNAs were purified using an RNeasy Maxi kit (Qiagen catalog #75162) according to manufacturer's instructions. mRNAs were eluted in water and dephosphorylated by adjusting the solution to 50 mM Bis-Tris-Propane HCl (pH 6.0), 1 mM MgCl2, 0.1 mM ZnCl2 and 250 units/mg Antarctic phosphatase (New England Biolabs catalog #M0289). The reaction were incubated at 37° C. for 1 hour. The resulting mRNAs were purified using an RNeasy Maxi kit (Qiagen catalog #75162) according to manufacturer's instructions. mRNAs were eluted in water.
A double stranded firefly luciferase DNA transcription template specific for each trimer is generated by polymerase chain reaction. These templates differed in template nucleotides +1 and +2. For a given trimer, template nucleotide +1 was complementary to B1 (the nucleotide destined to become transcript nucleotide +1). Likewise template nucleotide +2 was complementary to […] (the nucleotide destined to become transcript nucleotide +2; see Example 10)). Transcription reactions are assembled with 25 ug/mL transcription template, 40 mM Tris-HCl (pH 8.0), 27 mM MgCl2, 2 mM spermidine, 10 mM DTT, 0.002% Triton X-100, 1000 unit/mL murine RNase inhibitor (New England Biolabs catalog #M0314), 2 unit/mL inorganic pyrophosphatase (New England Biolabs catalog #M2403), 4000 units/mL T7 RNA polymerase (New England Biolabs catalog #M0251) and 6 mM of initiating capped oligonucleotide primer, 1.5 mM GTP and 7.5 mM each of ATP, CTP and UTP. In subsequent examples, this primer/NTP formulation will be referred to as Primer/NTP Formulation 1. It is clear to one skilled in the art that other polymerases such as T7, T3 or SP6 RNA polymerases could be used instead of T7 RNA polymerase to perform the same function by using their respective promoters. Transcription reaction mixtures are incubated at 37° C. for 2 hours. Reactions are supplemented with 10 mM Tris-HCl (pH 7.6), 2.5 mM MgCl2, 0.5 mM CaCl2 and 100 units/mL DNase I (New England Biolabs catalog #M0303) and incubated for 1 hour at 37° C. The resulting mRNAs are purified using an RNeasy Maxi kit (Qiagen catalog #75162) according to manufacturer's instructions. mRNAs are eluted in water and dephosphorylated by adjusting the solution to 50 mM Bis-Tris-Propane HCl (pH 6.0), 1 mM MgCl2, 0.1 mM ZnCl2 and 250 units/mg Antarctic phosphatase (New England Biolabs catalog #M0289). The reaction is incubated at 37° C. for 1 hour. The resulting mRNAs are purified using an RNeasy Maxi kit (Qiagen catalog #75162) according to manufacturer's instructions. mRNAs are eluted in water.
Initiating capped oligonucleotide primer ^7mG3′OmepppA2′OmepG2′OmepG were used in transcription. Transcription were carried out as in Example 11 with the following modifications. A double stranded DNA transcription template specific for tetramer was generated by polymerase chain reaction. The template nucleotide +1 (2′-deoxythymidine) was complementary to Adenosine (the first nucleotide of the primer destined to become a transcript nucleotide +1).

T7 RNAP = T7 RNAP (Escherichia phage T7, UniProt P00573); details: transcription initiation; read-out: Kd for the first initiating NTP; cited from earlier work
Sequence of T7 RNAP (P00573 whole entry): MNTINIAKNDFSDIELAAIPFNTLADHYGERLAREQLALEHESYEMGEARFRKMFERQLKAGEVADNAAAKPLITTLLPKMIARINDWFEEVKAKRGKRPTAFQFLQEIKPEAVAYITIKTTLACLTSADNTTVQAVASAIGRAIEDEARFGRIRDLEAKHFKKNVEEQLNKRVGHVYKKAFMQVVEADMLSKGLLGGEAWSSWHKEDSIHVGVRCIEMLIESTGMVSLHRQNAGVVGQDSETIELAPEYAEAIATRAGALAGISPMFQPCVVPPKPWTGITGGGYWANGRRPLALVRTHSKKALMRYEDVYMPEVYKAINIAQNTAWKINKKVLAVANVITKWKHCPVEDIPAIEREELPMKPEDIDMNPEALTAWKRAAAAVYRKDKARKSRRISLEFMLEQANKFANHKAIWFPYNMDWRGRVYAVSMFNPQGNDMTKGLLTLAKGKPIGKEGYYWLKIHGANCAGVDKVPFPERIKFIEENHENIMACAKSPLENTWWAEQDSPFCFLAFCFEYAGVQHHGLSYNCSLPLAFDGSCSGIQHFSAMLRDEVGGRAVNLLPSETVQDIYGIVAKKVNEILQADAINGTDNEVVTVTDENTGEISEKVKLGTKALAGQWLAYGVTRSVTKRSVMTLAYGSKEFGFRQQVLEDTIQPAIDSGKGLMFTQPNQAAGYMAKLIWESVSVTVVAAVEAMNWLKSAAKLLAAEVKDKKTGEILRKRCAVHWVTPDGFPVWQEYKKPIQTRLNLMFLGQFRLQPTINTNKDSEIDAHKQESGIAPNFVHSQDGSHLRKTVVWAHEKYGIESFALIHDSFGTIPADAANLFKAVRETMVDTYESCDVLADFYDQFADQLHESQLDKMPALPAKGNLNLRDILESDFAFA

THP-1 cells = test: Translation of luciferase mRNAs in differentiated THP-1 cells; assay type: cell-based; details: 100 ng mRNA per well
Protocol: In order to assess the expression of luciferase mRNAs generated in Examples 14 and 15, mRNAs were transfected into THP-1 cells (ATCC, Catalog #TIB-202) with six replicates. THP-1 cells were cultured in ATCC formulated RPMI-1640 (ATCC, Catalog #30-2001) supplemented with 10% FBS, sodium pyruvate and penicillin/streptomycin at 37° C. under an atmosphere of 5% CO2. Cells were seeded at 2E+05 cells per well in a 24-well plate format in the presence of the phorbol ester 12-O-Tetradecanoylphorbol-13-acetate (TPA; Cell Signaling Technologies, Catalog #4174) to induce differentiation. Cells were transfected with 100 ng of mRNA per well 72 hours after seeding. For comparison, cells were also transfected with a Cap0 luciferase mRNA generated by initiation with ARCA. At 20 hours post-transfection, cells were harvested and luciferase activity was measured using a ONE-Glo Luciferase Assay System kit (Promega Catalog #E6120) according to the manufacturer's recommendations. Luminescence was measured using a GloMax-Multi+Detection System instrument according to the manufacturer's recommendations. Data were graphed as the mean of six replicates +/−the standard deviation from the mean. Data were analyzed using the Unpaired t-test to generate p values as a measure of significance. […] In FIG. 14B, we also assessed the activity of an mRNA that was made with the “TC” Template and capped with ARCA (Cap 0). […]

[2] = excess of ^7mGpppG over pppG from 4:1 to 10:1; cited from earlier work
T7 RNA polymerase [3] = target: T1, T7 RNA polymerase; test: Capping assay (LC-MS) of mRNA made with ^m7GpppA2′OmepG on "TC" vs "CC" transcription template; assay type: biochemical, T7 bacteriophage
Protocol: (§1) A double stranded firefly luciferase DNA transcription template was used with 2′-deoxythymidine and 2′-deoxycytidine residues at template positions +1 and +2, respectively. Two transcription reactions were assembled with 25 ug/mL transcription template, 40 mM Tris-HCl (pH 8.0), 27 mM MgCl2, 2 mM spermidine, 10 mM DTT, 0.002% Triton X-100, 1000 unit/mL murine RNase inhibitor (New England Biolabs catalog #M0314), 2 unit/mL inorganic pyrophosphatase (New England Biolabs catalog #M2403), 4000 units/mL T7 RNA polymerase (New England Biolabs catalog #M0251). The two transcriptions differed in the amount of initiating capped oligonucleotide, amount of NTPs and the identity of NTPs. The first transcription was designed to mimic the transcription conditions of Ishikawa et al. (Nucleic Acids Symposium Series No. 53:129 (2009)). This transcription reaction contained 6 mM of ^m7GpppA2′OmepG initiating capped oligonucleotide primer, 0.9 mM GTP and 7.5 mM of ATP, CTP and UTP. In subsequent examples this primer/NTP formulation will be referred to as Primer/NTP Formulation 2. In this formulation, the initiating oligonucleotide primer was in greater than 6 fold excess over GTP. The second transcription used 5 mM of ^m7GpppA2′OmepG initiating capped oligonucleotide primer, 5 mM GTP, ATP, CTP and pseudouridine triphosphate […]. In subsequent examples this primer/NTP formulation will be referred to as Primer/NTP Formulation 3. In Primer/NTP Formulation 3, the GTP concentration was increased in order to produce commercially useful amounts of RNA. It is clear to one skilled in the art that other polymerases such as T7, T3 or SP6 RNA polymerases could be used instead of T7 RNA polymerase to perform the same function by using their respective promoters. Transcription reaction mixtures are incubated at 37° C. for 2 hours. Reactions were supplemented with 10 mM Tris-HCl (pH 7.6), 2.5 mM MgCl2, 0.5 mM CaCl2 and 100 units/mL DNase I (New England Biolabs catalog #M0303) and incubated for 1 hour at 37° C. The resulting mRNAs were purified using an RNeasy Maxi kit (Qiagen catalog #75162) according to manufacturer's instructions. mRNAs were eluted in water and dephosphorylated by adjusting the solution to 50 mM Bis-Tris-Propane HCl (pH 6.0), 1 mM MgCl2, 0.1 mM ZnCl2 and 250 units/mg Antarctic phosphatase (New England Biolabs catalog #M0289). The reaction was incubated at 37° C. for 1 hour for Primer/NTP Formulation 2 and 3 hours for Primer/NTP Formulation 3 hour. The resulting mRNAs were purified using an RNeasy Maxi kit (Qiagen catalog #75162) according to manufacturer's instructions. mRNAs were eluted in water. The purified transcription yields with Primer/NTP Formulation 2 and 3 were 0.7 milligram/milliliter transcription reaction (mg/mL) and 3.9 mg/mL transcription reaction, respectively.
A double stranded firefly luciferase DNA transcription template was used in which the +1 and +2 template nucleotides were cytidines and thus not completely complementary to the ^m7GpppA2′OmepG initiating capped oligonucleotide primer. Two transcription reactions were assembled with 25 ug/mL transcription template, 40 mM Tris-HCl (pH 8.0), 27 mM MgCl2, 2 mM spermidine, 10 mM DTT, 0.002% Triton X-100, 1000 unit/mL murine RNase inhibitor (New England Biolabs catalog #M0314), 2 unit/mL inorganic pyrophosphatase (New England Biolabs catalog #M2403), 4000 units/mL T7 RNA polymerase (New England Biolabs catalog #M0251). The two transcriptions differed in the amount of initiating capped oligonucleotide and NTPs. The first transcription was designed to mimic the transcription conditions of Ishikawa et al. (Nucleic Acids Symposium Series No. 53: 129 (2009)). This transcription reaction contained Primer/NTP Formulation 2. The second transcription used Primer/NTP Formulation 3. It is clear to one skilled in the art that other polymerases such as T7, T3 or SP6 RNA polymerases could be used instead of T7 RNA polymerase to perform the same function by using their respective promoters. […]

T7 RNA polymerase [4] = target: T1, T7 RNA polymerase; test: In vitro transcription of firefly luciferase template, purified transcription yield; assay type: biochemical, T7 bacteriophage
Protocol: as §1, with “reaction, respectively. […]” for “reaction, respectively.”

T1 sequence (P00573 whole entry): as above

^m7G3′OmepppG2′OmepG
observed % capping (capping efficiency) (T7 RNA polymerase [1]): 87%

^m7G3′OmepppA2′OmepG
observed % capping (capping efficiency) (T7 RNA polymerase [1]): 99%

^m7G3′OmepppC2′OmepG
observed % capping (capping efficiency) (T7 RNA polymerase [1]): 97%

^m7GpppC2′OmepG
observed % capping (capping efficiency) (T7 RNA polymerase [1]): 98%

^m7GpppG2′OmepG
observed % capping (capping efficiency) (T7 RNA polymerase [1]): 89%

Nc1nc2c(ncn2[C@@H]2O[C@H](COP(=O)(O)OP(=O)(O)OP(=O)(O)O)[C@@H](O)[C@H]2O)c(=O)[nH]1 [GTP, guanosine triphosphate]
Kd (T7 RNAP): 2000 µM

^7mG(3′-O-Me)pppG [^m7G3′OmepppG, reference compound]
luciferase activity relative to transcripts made with ^m7GpppA2′OmepG on "TC" template (THP-1 cells; "TC" template, 20 hours post-transfection (FIG. 14B)): significantly less activity
observed % capping (capping efficiency) (T7 RNA polymerase [1]): 79%

^7mG(5′)ppp(5′)G [^7mGpppG]
5′-Cap structure mRNA transcripts [2]: 80-90%

^m7GpppA2′OmepG
translation (luciferase activity), "TC" template vs "CC" template (THP-1 cells; 20 hours post-transfection, Primer/NTP Formulations 2 and 3 (FIG. 14A, 14B)): significantly superior
fidelity of templated transcription initiation (T7 RNA polymerase [3]; template +1/+2 2′-deoxythymidine/2′-deoxycytidine, Formulations 2 and 3 (FIGS. 13A, 13B)): Only minor aberrant initiation products were detected
capping efficiency (T7 RNA polymerase [3]; template +1/+2 2′-deoxythymidine/2′-deoxycytidine, Primer/NTP Formulation 2 (FIG. 13A)): 99%
capping efficiency (T7 RNA polymerase [3]; template +1/+2 2′-deoxythymidine/2′-deoxycytidine, Primer/NTP Formulation 3 (FIG. 13B)): 96%
fidelity of templated transcription initiation (T7 RNA polymerase [3]; template +1/+2 cytidine, Formulations 2 and 3 (FIGS. 13C, 13D)): initiated in two registers
calculated capping efficiency (Cap 1+A and Cap 1 GtoA) (T7 RNA polymerase [3]; template +1/+2 cytidine, Primer/NTP Formulation 2 (FIG. 13C)): 97%
calculated capping efficiency (Cap 1+A and Cap 1 GtoA) (T7 RNA polymerase [3]; template +1/+2 cytidine, Primer/NTP Formulation 3 (FIG. 13D)): 77%
purified transcription yield (T7 RNA polymerase [4]; template +1/+2 2′-deoxythymidine/2′-deoxycytidine, Primer/NTP Formulation 2): 0.7 mg/mL
purified transcription yield (T7 RNA polymerase [4]; template +1/+2 2′-deoxythymidine/2′-deoxycytidine, Primer/NTP Formulation 3): 3.9 mg/mL
purified transcription yield (T7 RNA polymerase [4]; template +1/+2 cytidines, Primer/NTP Formulation 2): 0.6 mg/mL
purified transcription yield (T7 RNA polymerase [4]; template +1/+2 cytidines, Primer/NTP Formulation 3): 3.9 mg/mL
observed % capping (capping efficiency) (T7 RNA polymerase [1]): 99%

^m7GpppA2′OmepG2′OmepG
observed % capping (capping efficiency) (T7 RNA polymerase [1]): 50%
